Reference: patent US6716411B2, “Method for finding nucleotide synthesis inhibitors having fewer side effects” (Aventis Pharma Deustschland GmbH, priority 1999, dated 2004)

Experiments:
Format in all cases: in vivo
[1] = system: adjuvant-induced arthritis; experiment: Adjuvant-induced arthritis model, colestyramine 4 hours after compound 1 (Example 3); settings: for Increase in body weight / Reduction in arthritis score / Reduction in paw swelling / Surviving animals: orally
Procedure: Example 3 illustrates an experiment to determine whether the action of the minimally effective dose of compound 1 is reduced by administration of colestyramine at a time interval of 4 hours. This was investigated in the adjuvant-induced arthritis model. The model was carried out according to Example 1. Compound 1 was administered orally in 1% CMC daily from the start to the end of the investigation in a dose of 2.5 mg/kg/day. Colestyramine was likewise administered orally in 1% CMC 4 hours after the administration of compound 1. The corresponding control groups received equal volumes of a 1% CMC at the corresponding times.
In Example 3, we investigated whether relatively constant blood levels existing over a fairly long time were responsible for the desired effects of compound 1 on the immune system, or whether blood levels occurring for a short time (peak blood levels) of compound 1 caused this effect.
For this, compound 1 was administered orally once daily at the lowest efficacious dose of 2.5 mg/kg/day (see Example 1). In the corresponding comparison groups, colestyramine was administered 4 hours after administration of compound 1 in order to lower the blood levels of compound 1 in an accelerated manner after the absorption phase had taken place. By means of this, the action of blood levels of compound 1 existing for different lengths of time on the immunologically related pathological processes in adjuvant-induced arthritis in the rat was investigated.

[2] = system: adjuvant-induced arthritis; experiment: Adjuvant-induced arthritis model, dose-response relationship (Example 1); settings: for Increase in body weight / Reduction in arthritis score / Reduction in paw swelling / Surviving animals: day 21
Text: The dose-response relationship of N-(4-trifluoromethylphenyl)-2-cyano-3-hyroxycrotonamide, hereafter referred to as compound 1, was drawn up in the adjuvant-induced arthritis model (method of Pearson C. M. and Wood F. D.; Arth. Rheum. 2: 44 (1959), and Taurog J. D., Argentieri D. C. et al., Meth. Enzymol. 162: 339 (1988)). The swelling of the paws, the formation of generalized symptoms of arthritis, know as the score index, the increase in the body weight during the experiment, and the survival of the animals were determined.
Compound 1 was administered orally from the start of the experiment onwards up to the end on day 21 in a 1% strength carboxymethlcellulose solution, (CMC). The control groups received corresponding amounts of 1% CMC without the active compound.
Six male Lewis rats having a body weight of approximately 210 g were employed in each experimental group.
Negative numbers indicate the worsening of the respective measurement parameter.
In the adjuvant-induced arthritis model in the rat, autoimmune reactions are observed which correspond to the autoimmune diseases of the rheumatic type in humans.

pemphigus vulgaris = experiment: Observation of leflunomide treatment in humans; settings: rheumatoid arthritis patients treated with leflunomide
Procedure: This diarrhea adversely affected the quality of life of the patient. Because of the problems caused by this side effect, an attempt was made, after more than two years' therapy with a constant dose of 20 mg of leflunomide per day, to end the therapy.
This observation was surprising, as the active metabolite of leflunomide, compound 1, has a half-life of approximately 14 days in humans. Furthermore, in this patient the blood levels of the active metabolite of leflunomide were repeatedly determined in the relatively high range between 70 mg/l and 85 mg/l.

[3] = 2.5 mg/kg/day of compound 1 alone
[4] = 2.5 mg/kg/day of compound 1 and 1000 mg/kg/day of cholestyramine 4 hours later

C/C(O)=C(\C#N)C(=O)Nc1ccc(C(F)(F)F)cc1 [compound 1, N-(4-trifluoromethylphenyl)-2-cyano-3-hydroxycrotonamide]
desired action on adjuvant-induced arthritis with versus without colestyramine 4 hours after compound 1 ([1]; 2.5 mg/kg/day of compound 1): No difference was seen | Increase in body weight [1, 3]: 20% | Reduction in arthritis score [1, 3]: 70% | Reduction in paw swelling [1, 3]: 78% | Surviving animals [1, 3]: 100% | Increase in body weight [1, 4]: 20% | Reduction in arthritis score [1, 4]: 81% | Reduction in paw swelling [1, 4]: 86% | Surviving animals [1, 4]: 100% | therapeutic action ([2]; 1 mg/kg/day): an action could no longer be determined | Increase in body weight ([2]; 1 mg/kg/day orally): 10% | Reduction in arthritis score ([2]; 1 mg/kg/day orally): −11% | Reduction in paw swelling ([2]; 1 mg/kg/day orally): −9% | Surviving animals ([2]; 1 mg/kg/day orally): 100% | Increase in body weight ([2]; 2.5 mg/kg/day orally): 20% | Reduction in arthritis score ([2]; 2.5 mg/kg/day orally): 70% | Reduction in paw swelling ([2]; 2.5 mg/kg/day orally): 78% | Surviving animals ([2]; 2.5 mg/kg/day orally): 100% | Increase in body weight ([2]; 5 mg/kg/day orally): 37% | Reduction in arthritis score ([2]; 5 mg/kg/day orally): 83% | Reduction in paw swelling ([2]; 5 mg/kg/day orally): 96% | Increase in body weight ([2]; 7.5 mg/kg/day orally): 25% | Reduction in arthritis score ([2]; 7.5 mg/kg/day orally): 87% | Reduction in paw swelling ([2]; 7.5 mg/kg/day orally): 105% | Increase in body weight ([2]; 10 mg/kg/day orally): 11% | Reduction in arthritis score ([2]; 10 mg/kg/day orally): 84% | Reduction in paw swelling ([2]; 10 mg/kg/day orally): 96% | Increase in body weight ([2]; 15 mg/kg/day orally): 8% | Reduction in arthritis score ([2]; 15 mg/kg/day orally): 91% | Reduction in paw swelling ([2]; 15 mg/kg/day orally): 106% | Increase in body weight ([2]; 25 mg/kg/day orally): −2% | Reduction in arthritis score ([2]; 25 mg/kg/day orally): 96% | Reduction in paw swelling ([2]; 25 mg/kg/day orally): 114% | lowest efficacious dose ([2]; orally once daily, adjuvant-induced arthritis, rat): 2.5 mg/kg/day | blood levels of the compound 1 (pemphigus vulgaris): over 32 mg/l
